{"source": "patent EP0449955B1", "about": "“SYNTHETIC HIV-LIKE PEPTIDES, THEIR COMPOSITIONS AND USES” (CLARITY TECHNOLOGIES INCORPORATED, priority 1988, dated 1996)", "tested_on": "antibodies to HIV-2", "assay": "EIA of HIV-2 peptide-BSA conjugates with macaque sera", "assay_type": "binding", "details": "macaque sera containing or not containing antibodies to HIV-2, Figure 7", "protocol": "The synthetic peptides of Figures 1-8 were reduced with 10mM DTT, or with immobilized DTT (Reductacryl, Calbiochem, San Diego, California, U.S.A., 10 mg Reductacryl per mg peptide) overnight at 4°C, pH8 in 10mM borate or other buffers depending upon peptide solubility, with gentle mixing. KLH was dissolved at a concentration of 10-30 mg/ml in 10 mM phosphate buffer pH 7.2., and BSA was dissolved at a concentration of 20-80 mg/ml for treatment with heterobifunctional linkers MBS (m-Maleimidobenzoyl-N-hydroxysuccinimide ester), SPDP [N-Succinimidyl 3-(2 pyridyldithio)propionate], or Sulfo-SMCC [Sulfo-Succinimidyl 4(N-maleimidomethyl)-cyclohexane-1-carboxylate]. The heterobifunctional linkers were added to the protein solutions in a molar excess of linker to BSA of 100, or of linker to KLH of 1000. MBS was dissolved in DMF at 10mg/ml, SPDP was dissolved in absolute ethanol at 10mg/ml and each of these was added dropwise with mixing into the protein solution, whereas the Sulfo-SMCC dry powder was dissolved into the protein solution. Each protein-linker mixture was reacted at room temperature for 15 minutes to 1 hour and then free linker was separated from BSA-linker or KLH-linker by gel chromatography with Sephadex G25 using 50mM phosphate, pH 6 for KLH-MBS, 10mM acetate, 100 mM Nacl, pH 4.6 for BSA-SPDP, or 100 mM phosphate, 1 mM EDTA, pH 6.5 for BSA-SMCC. The reduced peptides were separated from DTT by Sephadex G10 column chromatography when soluble DTT was used, or by centrifugation followed by filtration through a 0.22 micron filter when Reductacryl was used. Reduced peptides were combined with linker treated KLH or BSA in molar ratios of 100-1000 peptide/KLH-MBS, 1-50 peptide/BSA-SMCC, and 0.1-10 peptide/BSA-SPDP. Each reduced peptide was added to the linker-treated protein with mixing, overlayed with N₂, and then mixed gently at room temperature for one hour, and then overnight at 4°C. The SMCC-BSA conjugates were further treated with a 1 mM final concentration of mercaptoethylamine for 4 hours, and then dialyzed overnight against 100 volumes of buffer (20mM phosphate, 1 mM EDTA, 0.05% sodium azide, pH 6.5) at 4°C. All other conjugates were adjusted to a final concentration of sodium azide of 0.05%. Optimal molar ratios of peptide/protein for the conjugates were determined by solubility and antigenicity (as evaluated by EIA).\nThe free peptides or peptide-protein conjugates of Figures 1-13 were initially screened for immunoreactivity by coating each well of polystyrene microtiter EIA plates (Costar, Cambridge, Massachusetts, U.S.A.) with 0.2 ml amounts of concentrations of 5-50 micrograms/ml peptide in Tris buffer, 10 mM, pH 8.0, at 4°C overnight. […]"}
{"sequence": "ARLNSWGCAFRQVCHGC [2S25]", "values": [{"measurement": "discrimination of positive from negative samples", "value": "most favorable performances"}]}
